Data taken from patent publication US6780875B2, “Quinoline-4-carboxamide derivatives as NK-3 and NK-2 receptor antagonists” (SmithKline Beecham S.p.A., priority 1998, dated 2004).
Structures can show the parent of a compound that is named as a salt.

| SMILES | melting point |
| --- | --- |
| CC[C@H](NC(=O)c1c(CN2CCC3(CC2)C(=O)NCN3c2ccccc2)c(-c2ccccc2)nc2ccccc12)c1ccccc1 | 242 to 245 °C |
| CC[C@H](NC(=O)c1c(CN2CCC(n3c(=O)[nH]c4ccccc43)CC2)c(-c2ccccc2)nc2ccccc12)c1ccccc1 | 195 to 197 °C |
| C[C@H](NC(=O)c1c(CN2CCC(n3c(=O)[nH]c4ccccc43)CC2)c(-c2ccccc2)nc2ccccc12)C1CCCCC1 | 204 to 206 °C |
| C[C@H](NC(=O)c1c(CN2CCN(C(=O)Cc3c[nH]cn3)CC2)c(-c2ccccc2)nc2ccccc12)C1CCCCC1 | 178 to 210 °C |
| C[C@H](NC(=O)c1c(CN2CCN(Cc3ccccc3)CC2)c(-c2ccccc2)nc2ccccc12)C1CCCCC1 (as salt: HCl) | 176 to 179 °C |
| CC[C@H](NC(=O)c1c(CN2CCN(C3CCCCC3)CC2)c(-c2ccccc2)nc2ccccc12)c1ccccc1 (as salt: HCl) [Example 1, 3-(4-Cyclohexyl-piperazin-1-ylmethyl)-2-phenyl-quinoline-4-carboxylic acid ((S)-1-phenyl-propyl)-amide] | 261 to 263 °C |
| C[C@H](NC(=O)c1c(CN2CCN(CCc3ccccc3)CC2)c(-c2ccccc2)nc2ccccc12)C1CCCCC1 (as salt: HCl) [Example 5, 3-(4-Phenethyl-piperazin-1-ylmethyl)-2-phenyl-quinoline-4-carboxylic acid ((S)-1-cyclohexyl-ethyl)-amide] | 168 to 171 °C |
| CC[C@H](NC(=O)c1c(CN2CCC(N3CCCCC3)CC2)c(-c2ccccc2)nc2ccccc12)c1ccccc1 (as salt: HCl) [Example 14, 3-[1,4′]Bipiperidinyl-1′-ylmethyl-2-phenyl-quinoline-4-carboxylic acid ((S)-1-phenyl-propyl)-amide] | 182 to 185 °C |
| C[C@H](NC(=O)c1c(CN2CCC(N3CCCCC3)CC2)c(-c2ccccc2)nc2ccccc12)c1ccccc1 (as salt: HCl) [Example 30, 3-[1,4′]Bipiperidinyl-1′-ylmethyl-2-phenyl-quinoline-4-carboxylic acid ((S)-1-phenyl-ethyl)-amide] | 208 to 210 °C |
| CCN1CCN(Cc2c(-c3ccccc3)nc3ccccc3c2C(=O)N[C@@H](C)C2CCCCC2)CC1 (as salt: HCl) [Example 37, 3-(4-Ethyl-piperazin-1-ylmethyl)-2-phenyl-quinoline-4-carboxylic acid ((S)-1-cyclohexyl-ethyl)-amide] | 188 to 190 °C |
| CC[C@H](NC(=O)c1c(CN2CCN3CCCC3C2)c(-c2ccccc2)nc2ccccc12)c1ccccc1 (stereo partly drawn) (as salt: HCl) [Example 49, 3-(Hexahydro-pyrrolo[1,2-a]pyrazin-2-ylmethyl)-2-phenyl-quinoline-4-carboxylic acid ((S)-1-phenyl-propyl)-amide] | 196 to 198 °C |
| CC(C)N1CCN(Cc2c(-c3ccccc3)nc3ccccc3c2C(=O)N[C@@H](C)C2CCCCC2)CC1 (as salt: hydrochloride) [Example 4, 3-(4-Isopropyl-piperazin-1-ylmethyl)-2-phenyl-quinoline-4-carboxylic acid ((S)-1-cyclohexyl-ethyl)-amide] | 180 to 183 °C |
| C[C@H](NC(=O)c1c(CN2CCC(N3CCCCC3)CC2)c(-c2ccccc2)nc2ccccc12)C1CCCCC1 (as salt: hydrochloride) [Example 13, 3-[1,4′]Bipiperidinyl-1′-ylmethyl-2-phenyl-quinoline-4-carboxylic acid ((S)-1-cyclohexyl-ethyl)-amide] | 180 to 184 °C |
| CC[C@H](NC(=O)c1c(CN2CCC(N3CCCCC3)CC2)c(-c2ccccc2)nc2cc(OC)ccc12)c1ccccc1 (as salt: hydrochloride) [Example 67, 3-[1,4′]Bipiperidinyl-1′-ylmethyl-7-methoxy-2-phenyl-quinoline-4-carboxylic acid ((S)-1-phenyl-propyl)-amide] | 208 to 210 °C |
| CC[C@H](NC(=O)c1c(CN2CCC(c3ccccc3)CC2)c(-c2ccccc2)nc2ccccc12)c1ccccc1 [Example 2, 2-Phenyl-3-(4-phenyl-piperidin-1-ylmethyl)-quinoline-4-carboxylic acid ((S)-1-phenyl-propyl)-amide] | 90 to 95 °C |
| CC[C@H](NC(=O)c1c(C(c2ccccc2)(N2CCCCC2)N(C)C(C)=O)c(-c2ccccc2)nc2ccccc12)c1ccccc1 (stereo partly drawn) [Example 11, 3-[(Acetyl-methyl-amino)-phenyl-piperidin-1-ylmethyl]-2-phenyl-quinoline-4-carboxylic acid ((S)-1-phenyl-propyl)-amide] | 100 °C (dec.) |
| CC[C@H](NC(=O)c1c(CN2CCN(CCOCCO)CC2)c(-c2ccccc2)nc2ccccc12)c1ccccc1 [Example 15, 3-{4-[2-(2-Hydroxy-ethoxy)-ethyl]-piperazin-1-ylmethyl}-2-phenyl-quinoline-4-carboxylic acid ((S)-1-phenyl-propyl)-amide] | 158 to 160 °C |

| SMILES | melting point |
| --- | --- |
| COCCN1CCN(Cc2c(-c3ccccc3)nc3ccccc3c2C(=O)N[C@@H](C)C2CCCCC2)CC1 [Example 17, 3-[4-(2-Methoxy-ethyl)-piperazin-1-ylmethyl]-2-phenyl-quinoline-4-carboxylic acid ((S)-1-cyclohexyl-ethyl)-amide] | 113 to 115 °C |
| CC[C@H](NC(=O)c1c(CN2CCC(N3CCC(O)CC3)CC2)c(-c2ccccc2)nc2ccccc12)c1ccccc1 [Example 18, 3-(4-Hydroxy-[1,4′]bipiperidinyl-1′-ylmethyl)-2-phenyl-quinoline-4-carboxylic acid ((S)-1-phenyl-propyl)-amide] | 166 to 168 °C |
| CC[C@H](NC(=O)c1c(CN2CCC(N3CCOCC3)CC2)c(-c2ccccc2)nc2ccccc12)c1ccccc1 [Example 19, 3-(4-Morpholin-4-yl-piperidin-1-ylmethyl)-2-phenyl-quinoline-4-carboxylic acid ((S)-1-phenyl-propyl)-amide] | 157 to 165 °C |
| C[C@H](NC(=O)c1c(CN2CCN(CCOCCO)CC2)c(-c2ccccc2)nc2ccccc12)C1CCCCC1 [Example 20, 3-{4-[2-(2-Hydroxy-ethoxy)-ethyl]-piperazin-1-ylmethyl}-2-phenyl-quinoline-4-carboxylic acid ((S)-1-cyclohexyl-ethyl)-amide] | 126 to 128 °C |
| CC[C@H](NC(=O)c1c(CN2CCN(C(C)=O)CC2)c(-c2ccccc2)nc2ccccc12)c1ccccc1 [Example 23, 3-(4-Acetyl-piperazin-1-ylmethyl)-2-phenyl-quinoline-4-carboxylic acid ((S)-1-phenyl-propyl)-amide] | 117 to 119 °C |
| C[C@H](NC(=O)c1c(CN2CCN(C(=O)c3ccccc3)CC2)c(-c2ccccc2)nc2ccccc12)C1CCCCC1 [Example 24, 2-Phenyl-3-[4-(1-phenyl-methanoyl)-piperazin-1-ylmethyl]-quinoline-4-carboxylic acid ((S)-1-cyclohexyl-ethyl)-amide] | 150 to 152 °C |
| CC(C)C(=O)N1CCN(Cc2c(-c3ccccc3)nc3ccccc3c2C(=O)N[C@@H](C)C2CCCCC2)CC1 [Example 25, 3-[4-(2-Methyl-propanoyl)-piperazin-1-ylmethyl]-2-phenyl-quinoline-4-carboxylic acid ((S)-1-cyclohexyl-ethyl)-amide] | 149 to 151 °C |
| CC[C@H](NC(=O)c1c(CN2CCN(CCO)CC2)c(-c2ccccc2)nc2ccccc12)c1ccccc1 [Example 28, 3-[4-(2-Hydroxy-ethyl)-piperazin-1-ylmethyl]-2-phenyl-quinoline-4-carboxylic acid ((S)-1-phenyl-propyl)-amide] | 142 to 144 °C |
| C[C@H](NC(=O)c1c(CN2CCN(CCO)CC2)c(-c2ccccc2)nc2ccccc12)C1CCCCC1 [Example 29, 3-[4-(2-Hydroxy-ethyl)-piperazin-1-ylmethyl]-2-phenyl-quinoline-4-carboxylic acid ((S)-1-cyclohexyl-ethyl)-amide] | 95 to 105 °C |
| CC[C@H](NC(=O)c1c(CN2CCN(C(=O)c3ccccc3)CC2)c(-c2ccccc2)nc2ccccc12)c1ccccc1 [Example 31, 2-Phenyl-3-[4-(1-phenyl-methanoyl)-piperazin-1-ylmethyl]-quinoline-4-carboxylic acid ((S)-1-phenyl-propyl)-amide] | 180 to 182 °C |
| C[C@H](NC(=O)c1c(CN2CCC(C(N)=O)CC2)c(-c2ccccc2)nc2ccccc12)C1CCCCC1 [Example 36, 3-(4-Carbamoyl-piperidin-1-ylmethyl)-2-phenyl-quinoline-4-carboxylic acid ((S)-1-cyclohexyl-ethyl)-amide] | 219 to 221 °C |
| C[C@H](NC(=O)c1c(CN2CCC(N3CCOCC3)CC2)c(-c2ccccc2)nc2ccccc12)C1CCCCC1 [Example 42, 3-(4-Morpholin-4-yl-piperidin-1-ylmethyl)-2-phenyl-quinoline-4-carboxylic acid ((S)-1-cyclohexyl-ethyl)-amide] | 135 to 137 °C |
| C[C@H](NC(=O)c1c(CN2CCC(N3CCC(O)CC3)CC2)c(-c2ccccc2)nc2ccccc12)C1CCCCC1 [Example 43, 3-(4-Hydroxy-[1,4′]bipiperidinyl-1′-ylmethyl)-2-phenyl-quinoline-4-carboxylic acid ((S)-1-cyclohexyl-ethyl)-amide] | 150 to 160 °C |
| C[C@H](NC(=O)c1c(CN2CCN(C(=O)CN(C)C)CC2)c(-c2ccccc2)nc2ccccc12)C1CCCCC1 [Example 46, 3-[4-(2-Dimethylamino-ethanoyl)-piperazin-1-ylmethyl]-2-phenyl-quinoline-4-carboxylic acid ((S)-1-cyclohexyl-ethyl)-amide] | 173 to 175 °C |
| CCN(CC)CCC(=O)N1CCN(Cc2c(-c3ccccc3)nc3ccccc3c2C(=O)N[C@@H](C)C2CCCCC2)CC1 [Example 47, 3-[4-(3-Diethylamino-propanoyl)-piperazin-1-ylmethyl]-2-phenyl-quinoline-4-carboxylic acid ((S)-1-cyclohexyl-ethyl)-amide] | 104 to 106 °C |
| C[C@H](NC(=O)c1c(CN2CCN(C(=O)CN3CCN(C)CC3)CC2)c(-c2ccccc2)nc2ccccc12)C1CCCCC1 [Example 48, 3-{4-[2-(4-Methyl-piperazin-1-yl)-ethanoyl]-piperazin-1-ylmethyl}-2-phenyl-quinoline-4-carboxylic acid ((S)-1-cyclohexyl-ethyl)-amide] | 162 to 163 °C |
